Laboratory results as given in a melting point compilation (Tetko et al.; mined from patent text by program, amines drawn as free bases though some values may be those of a salt).

Row | melting point [°C] | SMILES
1 | 180 to 183 | COc1ccc2onc(CC(N)=NO)c2c1
2 | 72 | CCOC(C#N)NC(=O)c1cccc(OC)c1 (centres undefined)
3 | 104 to 106 | CCCCc1c(OC)cc(C(=O)O)nc1Cl
4 | 172 to 183 | COC(=O)c1[nH]c2cc(Cl)ccc2c1-c1ccc(F)cc1
5 | 81 to 83 | CCOC(=O)C(CC)Nc1ccc2ccccc2c1 (centres undefined)
6 | 221 to 222 | COC(=O)C1=C(C)NC(C)=C(c2nc(C)no2)C1c1cccc([N+](=O)[O-])c1 (centres undefined)
7 | 133 to 134 | COc1ccc(-c2ccccc2)c2ccc(C)nc12
8 | 113 to 115 | CC(C)Nc1cccnc1N1CCN(C(=O)c2ccc(C(=O)NC(C)(C)CO)cc2)CC1
9 | 155 to 156 | C=C(C(=O)OC)C(O)c1c(C)n(C(=O)OC(C)(C)C)c2ccc(C)c(O)c12 (centres undefined)
10 | 112 to 116 | C[C@@H]1Cc2ccsc2[C@H](C)N1CCCCNC(=O)c1ccc(NS(C)(=O)=O)cc1 (relative stereo)
11 | 206 to 208 | COC(=O)c1ccc(OC(=O)c2cc(C)c3c(c2C)C2(CCS3(=O)=O)OCCO2)cc1
12 | > 230 | COC(=O)c1cc2cc(OC)c(OC)cc2c(-c2ccnc(-n3c(=O)ccc4ccccc43)c2)c1C(=O)OC
13 | 142 to 145 | COc1cccc(NS(=O)(=O)c2ccc(N)cc2)c1
14 | 148 to 150 | CCc1nn(C2CCC2)c2cc(C(=O)O)ccc12
15 | 136 to 137 | COc1ccc(C=CC=O)cc1OCc1nc(-c2ccccc2)oc1C
16 | 102 to 104 | Cc1cccc(/C=C/c2nc(COc3ccc(CCCCc4c[nH]c(CC(O)CO)n4)cc3)co2)c1 (centres undefined)
17 | 93 to 94 | COC(=O)c1ccoc1-c1cccc([N+](=O)[O-])c1
18 | 68 to 70 | FC(F)(F)c1cc(Br)cc(OCc2ccc3ccccc3c2)c1
19 | 132 | CCN(CC)C(=O)C(C)c1cc(-c2ccccc2)nc2ccccc12 (centres undefined)
20 | 56.9 | Cc1cc(C(=O)c2ccccc2)c(OCCCCCCCCO)cc1N(C)C
21 | 98 to 99 | O=C(c1ccccc1CBr)c1ccc(F)cc1CBr
22 | 132 to 134 | CC(C)NCC(O)COc1ccc2ncsc2c1 (centres undefined)
23 | 210 to 212 | CCOC(=O)c1cn(-c2ccccc2)c2oc(CN3CCOCC3)cc2c1=O

Row | melting point [°C] | SMILES
24 | 187 to 189 | CC(=O)OCCc1nc2c(N)nc3ccccc3c2n1CC(C)C
25 | 218 to 221 | CN1CCN(c2cccc(Oc3cc(=O)[nH]c4ccccc34)c2)CC1
26 | 78 to 80 | N#CCc1nc(C(=O)c2ccc(F)cc2)no1
27 | 112 to 115 | Cc1cc(C)c(Nc2nc(C)ncc2S(=O)(=O)c2cccc(OCc3ccccc3)c2)c(C)c1
28 | 183 to 186 | CC(C)(C)c1cc(-c2nn(CCC(=O)O)c3ncccc23)cc(C(C)(C)C)c1O
29 | 101 | CCCC(Cc1ccc(OCCN2CCOCC2)cc1)(C(=O)NO)S(=O)(=O)c1ccc(OC)cc1 (centres undefined)
30 | 195 to 197 | COc1ccc(C(=O)Nc2ccccc2)cc1NCc1ccc(C(C)(C)C)cc1
31 | 168 | CCCC(c1ccc(C(=O)Nc2ccccc2)cc1OCc1ccc(Br)cc1)n1ccnc1 (centres undefined)
32 | 163 | COc1ccccc1CC(=O)N1C[C@@H]2C(=O)CCC(c3ccccc3)(c3ccccc3)[C@@H]2C1 (racemic)
33 | 160 to 162 | CC(C)[C@H](NC(=O)OCc1ccccc1)C(=O)N[C@H](C=O)Cc1ccc(OCc2ccccc2)cc1
34 | 48 to 50 | COc1ccnc(C(=O)N[C@H]2COC(=O)[C@H](CCOC(=O)c3ccccc3)[C@@H](OC(=O)C(C)C)[C@H](C)OC2=O)c1OCOC(=O)C(C)C
35 | 138 | O=C(O)CCc1cc2cc(C(=O)c3ccccc3)ccc2n1S(=O)(=O)c1ccccc1
36 | 145 to 147 | CC(=O)Oc1c(Cl)nc(-c2ccccc2)nc1Cl
37 | 121 to 123 | CCC(=O)Nc1cc(-c2sc(C(C)=O)nc2-c2cccc(C)c2)ccn1
38 | 92 to 93 | CC(C)OCC(O)COc1ccc(/C=C/C(=O)O)c(Oc2ncc(C(F)(F)F)cc2Cl)c1 (centres undefined)
39 | 99 to 101 | CCCCOc1cc2c(c3c1OC(C)(C)C3)C(c1ccccc1)=NC(C)(C)C2
40 | 92 | Cc1ccc(S(=O)(=O)OCC2(F)CCN(C(=O)c3ccc(F)c(Cl)c3)CC2)cc1
41 | 83 to 84 | CCOC(=O)CNc1ccc2ccccc2c1
42 | 118 to 119 | COc1cc(OCCOc2ccc(C(=O)C(=O)O)cc2)cc(OC)c1OC
43 | 168 | CC(C)(C)Oc1ccc(C(=O)N[C@H]2CC[C@H](CCN3CCN(c4nccc5c4OCC5)CC3)CC2)cc1
44 | 57 to 59 | CCOC(=O)C(C(=O)OCC)=C(SCc1ccc(OC)cc1)SCc1ccc(OC)cc1
45 | 235 to 236 | COC(=O)Nc1cc(OC)c(-c2ccc(C[C@H](NC(=O)c3c(Cl)cccc3Cl)C(=O)O)cc2)c(OC)c1

Further lines, the molecule ahead of its results:

Row | SMILES | melting point [°C]
46 | COc1cc(C2C3=C(COC3=O)N(C)c3cc4c(cc32)OCO4)cc(OC)c1OC (centres undefined) | 226
47 | Cn1cncc1C(O)c1ccc2c(c1)c(-c1cccc(Cl)c1)nc1nnnn12 (centres undefined) | 190
48 | CN(C)Cc1ccc(C2(O)CCC3(CC2)OCCO3)cc1 | 84 to 86
49 | O=C1C(CCO)Oc2ccc(-c3ccccc3)cc2N1Cc1cccc(Cl)c1 (centres undefined) | 119 to 121
50 | O=C1CCC(CCN2CC=C(c3ccccc3)CC2)CC1 | 94 to 96
51 | CCOC(=O)c1nnc(C(=O)OCC)nn1 | 85 to 90
52 | Clc1ccccc1OCC1(c2ccccc2)CCN(Cc2ccccc2)CCO1 (centres undefined) | 114 to 115
53 | C(=C\c1ccc(N2CCCC2)cc1)/CC1CCN(Cc2ccccc2)CC1 | 115 to 117
54 | Fc1cc(Cl)c2nc(Cl)sc2c1-n1nc2c(c1Cl)CCCC2 | 161 to 163
55 | Clc1ccc2c(C3=CCNCC3)c[nH]c2c1 | 181 to 185
56 | CCN(C)C(=O)c1cnn(C)c1C(=O)Nc1ccn2nc(N3CCOCC3)nc2c1 | 201 to 203
57 | CCn1ncc2c(N(C)Cc3ccccc3)c3ccccc3nc21 | 175 to 177
58 | NNC(=S)N1CCN(c2nc3cccccc-3n2)CC1 | 224 to 228
59 | O=C(NCCO[N+](=O)[O-])c1cnc(C(F)(F)F)s1 | 76 to 78
60 | CC1(C)CCC(Cc2ccc(Cl)cc2)C1(O)Cn1ncnc1S (centres undefined) | 179 to 180
61 | CNc1nc(C)c(-c2cn3cc(Cl)ccc3n2)s1 | 242 to 243
62 | COc1cc2c(cc1OC)C(c1ccc(Cl)cc1)=NN=C(C)C2 | 188 to 198
63 | O=C(O)c1cc2c(n(CC3CCCCC3)c1=O)CCCCCC2 | 162 to 163
64 | CC(C)S(=O)(=O)c1ccc2c(c1)nc(CC1(C)CCCC1)n2CC1CC1 | 122
65 | N#CCc1cccc([N+](=O)[O-])c1[N+](=O)[O-] | 88 to 90
66 | Nc1cc2nc(-c3ccccc3)nn2cc1F | > 250
67 | CS(=O)(=O)c1ccc(C2=C(c3ccc(F)cc3)CCC2)cc1 | 138 to 139
68 | COC(=O)c1c(S(N)(=O)=O)ccn1C | 105 to 107
69 | CC(C)c1nc(C(C)C)c(CN2CCN(c3ccccc3)CC2)c(-c2ccc(F)cc2)c1CO | 111 to 113
70 | CC1(C)c2c(Cl)cccc2S(=O)(=O)N1CC=O | 156
71 | [N-]=[N+]=NCCc1cccc2[nH]cc(S(=O)(=O)c3ccccc3)c12 | 143
72 | CCCCCCCCCCOc1ccccc1C(=N)OCC | 93 to 96

Row | SMILES | melting point [°C]
73 | CN(C)Cc1ccc2c(c1)Cc1c(-c3cccs3)n[nH]c1-2 | 204 to 206
74 | Cc1cc(Oc2ncc(C(F)(F)F)cc2Cl)nn1C(=O)Nc1cccc(C(F)(F)F)c1 | 123 to 124
75 | O=[N+]([O-])C(CN1CCN(c2ccccc2)CC1)c1ccccc1 (centres undefined) | 76
76 | O=S(=O)(Oc1ccc2c(OS(=O)(=O)c3ccc(O)cc3)c3cc(OS(=O)(=O)c4ccc(O)cc4)ccc3cc2c1)c1ccc(O)cc1 | 192 to 194
77 | CC(C)(C)C(Cl)=NNc1cc(Cl)c(Cl)cc1[N+](=O)[O-] | 99 to 100
78 | CC(=O)NCC1CN(c2cc(F)c(N3CCN(C(=O)OC(C)(C)C)CC3)c(F)c2)C(=O)O1 (centres undefined) | 177 to 179
79 | CN1CCC2(CC1)SC(C(C(=O)OC(C)(C)C)N1C(=O)c3ccccc3C1=O)NC2C(=O)OCc1ccccc1 (centres undefined) | 173 to 175
80 | NC(=O)c1nc2n(n1)-c1ccc(Cl)cc1C(c1ccccc1)=NC2 | 252 to 254
81 | CCCCCCCCCCCCc1ccccc1C(SCCC(=O)O)C(=O)O (centres undefined) | 44 to 46
82 | O=C(Nc1ccc2nc(CN3CCOCC3)ccc2c1)c1ccc(-c2ccc(Cl)cc2)cc1 | 236 to 238
83 | NC(CN1C(=O)c2ccccc2C1=O)=NO | 192 to 195
84 | CC(C)(C)NCC(O)COc1ccccc1-c1nc(C(F)(F)F)c[nH]1 (centres undefined) | 105 to 107
85 | CC[C@]12CC[C@H]3[C@@H](CC(Cl)C4=CC(=O)CC[C@@H]43)[C@@H]1C=CC2=O (some centres undefined) | 136
86 | CN1CCN(c2ccc(Br)c3c2C[C@H](NC(=O)c2ccc(C(F)(F)F)cc2)CC3)CC1 | 229 to 230
87 | CCSC1c2cccc(O)c2C(=O)c2c(O)cccc21 | 117 to 118
88 | CN1C(=O)N(c2ccccc2)S[N+]1(C)[O-] (centres undefined) | 77 to 79
89 | CCOC(=O)CNC(=O)N(N(CCCl)S(C)(=O)=O)S(C)(=O)=O | 121 to 122
90 | O=C(O)[C@@H]1CCCN1S(=O)(=O)c1cc(Cl)cc(Cl)c1O | 107
91 | Nc1ncc(Sc2ncccn2)s1 | 175 to 177
92 | CN(c1ccc(Cl)cc1[N+](=O)[O-])S(=O)(=O)C=Cc1ccccc1 | 162 to 164
93 | CN(c1ccccc1)S(=O)(=O)c1ccc(C=CC(C)(O)C(F)(F)F)cc1 (centres undefined) | 146 to 148
94 | Cc1nnc2n1-c1sc(Cl)cc1C(c1ccccc1Cl)=NC2 | 205 to 206
95 | CC(O)CNc1c(Br)cnc2ccccc12 (centres undefined) | 82 to 83
96 | Cc1c(Nc2c(C#N)cncc2-c2coc(CN3CCN(C)CC3)c2)ccc2[nH]ccc12 | 129
97 | CNc1cc(-n2cc(C(=O)O)c(=O)c3cc(F)c(F)c(C)c32)c(F)cc1F | 238
98 | CC(C)(C)c1cc(CC(S)C(=O)O)cc(C(C)(C)C)c1O (centres undefined) | 137 to 140
99 | Cn1cc(Oc2cccc(Cl)c2Cl)c(=O)c(-c2cccc(C(F)(F)F)c2)c1 | 200 to 202
